One may read the IC50 as the concentration that gives 50% inhibition.

The assay deals with T1, rat mGluR5 (Rattus norvegicus, UniProt P31424).
T1 construct: expressed in transfected cells
T1 sequence (P31424 21-1203): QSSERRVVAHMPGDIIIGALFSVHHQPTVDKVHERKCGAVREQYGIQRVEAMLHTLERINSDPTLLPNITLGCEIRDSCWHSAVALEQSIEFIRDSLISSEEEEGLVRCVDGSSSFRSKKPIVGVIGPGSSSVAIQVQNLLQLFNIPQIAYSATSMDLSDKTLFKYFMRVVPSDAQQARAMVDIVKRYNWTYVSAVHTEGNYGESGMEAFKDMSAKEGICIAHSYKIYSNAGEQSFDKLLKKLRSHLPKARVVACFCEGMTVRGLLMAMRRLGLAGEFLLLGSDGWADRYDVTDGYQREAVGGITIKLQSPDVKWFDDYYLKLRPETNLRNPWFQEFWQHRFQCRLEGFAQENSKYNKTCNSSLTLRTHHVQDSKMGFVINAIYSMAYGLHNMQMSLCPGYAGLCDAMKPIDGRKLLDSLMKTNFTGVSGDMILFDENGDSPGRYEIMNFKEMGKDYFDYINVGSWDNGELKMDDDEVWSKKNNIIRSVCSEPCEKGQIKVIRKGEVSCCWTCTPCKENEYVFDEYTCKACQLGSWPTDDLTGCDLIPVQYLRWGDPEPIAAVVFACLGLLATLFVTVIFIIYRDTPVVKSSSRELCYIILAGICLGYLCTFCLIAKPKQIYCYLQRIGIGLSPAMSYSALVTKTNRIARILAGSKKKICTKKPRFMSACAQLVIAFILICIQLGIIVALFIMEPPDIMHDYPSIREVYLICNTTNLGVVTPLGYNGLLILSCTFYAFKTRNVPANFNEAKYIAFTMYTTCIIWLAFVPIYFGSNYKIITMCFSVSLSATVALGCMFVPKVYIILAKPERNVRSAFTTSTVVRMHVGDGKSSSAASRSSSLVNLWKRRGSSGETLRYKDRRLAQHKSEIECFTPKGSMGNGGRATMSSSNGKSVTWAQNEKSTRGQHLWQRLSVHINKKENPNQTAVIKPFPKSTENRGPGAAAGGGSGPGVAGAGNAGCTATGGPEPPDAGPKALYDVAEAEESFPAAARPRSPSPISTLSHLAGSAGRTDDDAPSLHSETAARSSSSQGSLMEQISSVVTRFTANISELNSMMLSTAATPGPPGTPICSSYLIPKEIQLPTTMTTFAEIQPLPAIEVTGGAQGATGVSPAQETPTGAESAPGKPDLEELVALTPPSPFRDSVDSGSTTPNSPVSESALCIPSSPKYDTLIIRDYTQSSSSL
As to the kind of experiment: mGluR5 calcium flux assay in HEK 293A cells, negative allosteric modulation of glutamate EC80 response. It counts as cell-based. The conditions noted are these: HEK cells transfected with rat mGluR5; glutamate EC80; ± is standard error of at least three experiments. As for the experimental part:
HEK 293A cells stably expressing either rat or human mGluR5 were plated in black-walled, clear-bottomed, poly-D-lysine coated 384-well plates in 20 μL of assay medium (DMEM containing 10% dialyzed FBS, 20 mM HEPES, 100 units/mL penicillin/streptomycin plus 250 ng/mL Fungizone, and 1 mM sodium pyruvate) at a density of 20K cells/well. The cells were grown overnight at 37° C. in the presence of 5% CO2. The next day, medium was removed and the cells incubated with 20 μL of 2.3 µM Fluo-4, AM prepared as a 2.3 mM stock in DMSO and mixed in a 1:1 ratio with 10% (w/v) pluronic acid F-127 and diluted in assay buffer (Hank's balanced salt solution, 20 mM HEPES, and 2.5 mM probenecid) for 45 minutes at 37° C. Dye was removed, 20 μL of assay buffer was added, and the plate was incubated for 5 minutes at room temperature.
Ca^2+ flux was measured using the Functional Drug Screening System (FDSS7000, Hamamatsu, Japan). After establishment of a fluorescence baseline for about 3 seconds, the compounds of the present invention were added to the cells, and the response in cells was measured. 2.3 minutes later an EC20 concentration of the mGluR5 receptor agonist glutamate was added to the cells, and the response of the cells was measured for 1.9 minutes; an EC80 concentration of agonist was added and readings taken for an additional 1.7 minutes. All test compounds were dissolved and diluted to a concentration of 10 mM in 100% DMSO. Compounds were then serially diluted 1:3 in DMSO into 10 point concentration response curves, transferred to daughter plates, and further diluted into assay buffer to a 2× stock. Calcium fluorescence measures were recorded as fold over basal fluorescence; raw data was then normalized to the maximal response to glutamate. Antagonism of the agonist response of the mGluR5 receptor in the present invention was observed as a decrease in response to nearly maximal concentrations of glutamate in the presence of compound compared to the response to glutamate in the absence of compound.
The raw data file containing all time points was used as the data source in the analysis template. This was saved by the FDSS as a tab-delimited text file. Data were normalized using a static ratio function (F/F0) for each measurement of the total 360 values per well divided by each well's initial value. Data were then reduced to peak amplitudes (Max−Initial Min) using a time range that starts approximately 3 seconds prior to the glutamate EC20/EC80 addition and continues for approximately 90-120 seconds. This is sufficient time to capture the peak amplitude of the cellular calcium response. Individual amplitudes were expressed as % EMax by multiplying each amplitude by 100 and then dividing the product by the mean of the amplitudes derived from the glutamate ECMax-treated wells. IC50 values for test compounds were generated by fitting the normalized values versus the log of the test compound concentration (in mol/L) using a 4 parameter logistic equation where none of the parameters were fixed. Each of the three values collected at each concentration of test compound were weighted evenly.
For NAMs with a CRC that plateaus above 10% Glu Max, the IC50 values are reported, the compound is designated a “partial NAM” and the % Glu Max is reported. […] Compounds without measurable activity are designated as “>30,000 nM” since the top concentration of compound tested in the assay is 30 µM. Exemplary data are provided in Tables 1 and 2 below.
Table 1 below lists specific compounds, experimentally determined molecular mass, and mGluR5 activity determined in a cell-based assay. The mGluR5 activity was determined using the metabotropic glutamate receptor activity assays in human embryonic kidney cells as described herein, wherein the human embryonic kidney cells were transfected with rat mGluR5. The mGluR5 activity data for some compounds are shown as the average of at least three experiments with the standard error in these cases. […]
For orientation: Calcium flux is commonly read through the fluorescence of an indicator in the cells.
`Cc1cc(OC2CCCC2)cc(C(=O)Nc2ccccn2)n1`: the concentration for half-maximal inhibition (IC50) was found to be 182 nM.
Regarding `Cc1cc(OC2CCCC2)cc(C(=O)Nc2nc(C)cs2)n1`, the IC50 is 149 nM.
As to `Cc1cc(O[C@@H]2CCOC2)cc(C(=O)Nc2ccc(F)cn2)n1`, the half-maximal inhibitory concentration (IC50) was found to be 41 ± 3 nM.
Under `Cc1cc(OC2CCC2)cc(C(=O)Nc2ccc(F)cn2)n1` stands 182 nM; under `Cc1cc(OC2COC2)cc(C(=O)Nc2ccccn2)n1`, 66 nM.
Under `Cc1cc(OC2COC2)cc(C(=O)Nc2nc(C)cs2)n1` stands 70 ± 10 nM.
In the case of `Cc1cc(OC[C@@H]2CCOC2)cc(C(=O)Nc2ccc(F)cn2)n1`, the IC50 was 469 nM.
Under `Cc1cc(OC[C@H]2CCOC2)cc(C(=O)Nc2ccccn2)n1` stands 972 nM; under `Cc1cc(OC[C@H]2CCOC2)cc(C(=O)Nc2nc(C)cs2)n1`, 364 nM; under `COCCOc1cc(C)nc(C(=O)Nc2ccc(F)cn2)c1`, 527 nM.
The result for `Cc1cccc(NC(=O)c2cc(OC3COC3)cc(C)n2)n1` reads 59 nM; that for `COc1cccc(NC(=O)c2cc(OC3COC3)cc(C)n2)n1`, 1050 nM; that for `Cc1cc(OC2COC2)cc(C(=O)Nc2cccc(Cl)n2)n1`, 162 nM.
On to `COc1ccc(NC(=O)c2cc(OC3COC3)cc(C)n2)nc1`, for which the IC50 worked out at 1390 nM.
The result for `Cc1cc(OC2COC2)cc(C(=O)Nc2ccc(Cl)cn2)n1` reads 1530 nM; that for `Cc1cc(OC2CC3(COC3)C2)cc(C(=O)Nc2ccccn2)n1`, 1680 nM.
For `Cc1cc(OC2CC3(COC3)C2)cc(C(=O)Nc2nc(C)cs2)n1`, the IC50 is 433 nM.
In the case of `Cc1cc(OCC2COCCO2)cc(C(=O)Nc2ccc(F)cn2)n1` (centres unmarked), the IC50 stood at 7680 nM.
Under `Cc1cc(OC2CCSC2)cc(C(=O)Nc2ccccn2)n1` (centres unmarked) stands 39 nM; under `Cc1cc(OC2CCSC2)cc(C(=O)Nc2nc(C)cs2)n1` (centres unmarked), 77 nM; under `Cc1ccc(NC(=O)c2cc(OC3COC3)cc(C)n2)nc1`, 1480 nM.
Under `Cc1cc(OC2CC3(COC3)C2)cc(C(=O)Nc2ccc(F)cn2)n1` stands 3710 nM; under `Cc1cc(OCC2COCCO2)cc(C(=O)Nc2ccccn2)n1` (centres unmarked), 1780 nM; under `Cc1cc(OCC2COCCO2)cc(C(=O)Nc2nc(C)cs2)n1` (centres unmarked), 616 nM.
Under `Cc1cc(OC2CCSC2)cc(C(=O)Nc2ccc(F)cn2)n1` (centres unmarked) stands 75 nM; under `Cc1cc(OC2(C)COC2)cc(C(=O)Nc2ccc(F)cn2)n1`, 863 nM; under `Cc1cc(O[C@H]2CO[C@H](C)C2)cc(C(=O)Nc2ccc(F)cn2)n1`, 175 ± 21 nM.
Turning to `Cc1cc(O[C@H]2CO[C@@H](C)C2)cc(C(=O)Nc2ccc(F)cn2)n1`, the half-maximal inhibitory concentration (IC50) was found to be 4470 ± 260 nM.
Under `Cc1cc(O[C@H]2CO[C@H](C)C2)cc(C(=O)Nc2nc(C)cs2)n1` stands 81 ± 13 nM; under `Cc1cc(OCC2CCOCC2)cc(C(=O)Nc2ccccn2)n1`, 1460 nM.
Under `Cc1cc(OCC2CCOCC2)cc(C(=O)Nc2nc(C)cs2)n1` stands 610 nM; under `Cc1cc(OCC2CCCCO2)cc(C(=O)Nc2ccc(F)cn2)n1` (centres unmarked), not below 10000 nM; under `Cc1cc(OC2CCS(=O)(=O)C2)cc(C(=O)Nc2ccc(F)cn2)n1` (centres unmarked), 634 nM.
The result for `Cc1cc(O[C@H]2CO[C@@H](C)C2)cc(C(=O)Nc2nc(C)cs2)n1` reads 684 ± 107 nM.
For the compound `Cc1cc(OCC2CCOCC2)cc(C(=O)Nc2ccc(F)cn2)n1`, the concentration for half-maximal inhibition (IC50) was determined as 5720 nM.
As for `Cc1cc(OCC2CCCCO2)cc(C(=O)Nc2ccccn2)n1` (centres unmarked), the IC50 was 2970 nM.
Under `Cc1cc(OCC2CCCCO2)cc(C(=O)Nc2nc(C)cs2)n1` (centres unmarked) stands 1920 nM.
The result for `CC(=O)N1CC(Oc2cc(C)nc(C(=O)Nc3ccc(F)cn3)c2)C1` reads 756 ± 130 nM; that for `Cc1cc(OC2CN(S(C)(=O)=O)C2)cc(C(=O)Nc2ccc(F)cn2)n1`, 1310 nM; that for `CCOCCOc1cc(C)nc(C(=O)Nc2ccccn2)c1`, 842 nM.
The result for `CCOCCOc1cc(C)nc(C(=O)Nc2ccc(F)cn2)c1` reads 2100 nM; that for `COCCOCCOc1cc(C)nc(C(=O)Nc2ccccn2)c1`, 2540 nM; that for `COCCOCCOc1cc(C)nc(C(=O)Nc2nc(C)cs2)c1`, 954 nM.
Regarding `COCCCOc1cc(C)nc(C(=O)Nc2ccc(F)cn2)c1`, the IC50 stood at 2630 nM.
With `COC[C@H](C)Oc1cc(C)nc(C(=O)Nc2ccccn2)c1`, the half-inhibitory concentration (IC50) was determined as 2720 nM.
With `COC[C@H](C)Oc1cc(C)nc(C(=O)Nc2nc(C)cs2)c1`, the IC50 was 932 nM.
The result for `COC[C@@H](C)Oc1cc(C)nc(C(=O)Nc2ccc(F)cn2)c1` reads 9100 nM; that for `CCOCCOc1cc(C)nc(C(=O)Nc2nc(C)cs2)c1`, 364 nM.
Under `COCCOCCOc1cc(C)nc(C(=O)Nc2ccc(F)cn2)c1` stands 6930 nM; under `COCCCOc1cc(C)nc(C(=O)Nc2ccccn2)c1`, 844 nM; under `COCCCOc1cc(C)nc(C(=O)Nc2nc(C)cs2)c1`, 506 nM.
Under `COC[C@H](C)Oc1cc(C)nc(C(=O)Nc2ccc(F)cn2)c1` stands 7610 nM; under `COC[C@@H](C)Oc1cc(C)nc(C(=O)Nc2ccccn2)c1`, 2130 nM; under `COC[C@@H](C)Oc1cc(C)nc(C(=O)Nc2nc(C)cs2)c1`, 1030 nM.
As for `CO[C@H](C)COc1cc(C)nc(C(=O)Nc2ccccn2)c1`, the IC50 turned out to be 194 nM.
The result for `CO[C@H](C)COc1cc(C)nc(C(=O)Nc2nc(C)cs2)c1` reads 145 nM; that for `CO[C@@H](C)COc1cc(C)nc(C(=O)Nc2ccc(F)cn2)c1`, 4930 nM; that for `Cc1cc(O[C@@H]2CCOC2)cc(C(=O)Nc2nc(CF)cs2)n1`, 71 nM.
Under `Cc1cc(O[C@@H]2CCOC2)cc(C(=O)Nc2nc(C(F)F)cs2)n1` stands 247 nM; under `Cc1cc(O[C@@H]2CCOC2)cc(C(=O)Nc2nc(C(F)(F)F)cs2)n1`, 2040 nM.
Under `Cc1cc(O[C@@H]2CCOC2)cc(C(=O)Nc2nc(C3CC3)cs2)n1` stands 153 nM.
For the compound `CO[C@H](C)COc1cc(C)nc(C(=O)Nc2ccc(F)cn2)c1`, the 50% inhibitory concentration (IC50) was 718 nM.
As to `CO[C@@H](C)COc1cc(C)nc(C(=O)Nc2ccccn2)c1`, the IC50 is 2210 nM.
Under `CO[C@@H](C)COc1cc(C)nc(C(=O)Nc2nc(C)cs2)c1` stands 1050 nM; under `Cc1cc(O[C@H]2CO[C@H](C)C2)cc(C(=O)Nc2nc(CF)cs2)n1`, 180 nM; under `Cc1cc(O[C@H]2CO[C@H](C)C2)cc(C(=O)Nc2nc(C(F)F)cs2)n1`, 902 nM.
Under `Cc1cc(O[C@H]2CO[C@H](C)C2)cc(C(=O)Nc2nc(C(F)(F)F)cs2)n1` stands 5200 nM; under `Cc1cc(O[C@H]2CO[C@H](C)C2)cc(C(=O)Nc2nc(C3CC3)cs2)n1`, 899 nM.
The result for `Cc1cc(O[C@@H]2CCOC2)cc(C(=O)Nc2nc(C)c(F)s2)n1` reads 171 nM.
For `Cc1cc(OC2CSC2)cc(C(=O)Nc2ccc(F)cn2)n1`, the IC50 was determined as 37 nM.
The result for `Cc1cc(OC2C[S+]([O-])C2)cc(C(=O)Nc2ccc(F)cn2)n1` (centres unmarked) reads 533 nM; that for `Cc1cc(OC2CS(=O)(=O)C2)cc(C(=O)Nc2ccc(F)cn2)n1`, 742 nM.
`CC(=O)N1CC(Oc2cc(C)nc(C(=O)Nc3nc(C)cs3)c2)C1`: the 50% inhibitory concentration (IC50) stood at 388 nM.
Under `Cc1cc(OC2CN(C(=O)CC(C)C)C2)cc(C(=O)Nc2nc(C)cs2)n1` stands 1670 nM.

The values are drawn from patent US20170247366A1, “SUBSTITUTED 4-ALKOXYPICOLINAMIDE ANALOGS AS MGLUR5 NEGATIVE ALLOSTERIC MODULATORS AND METHODS OF MAKING AND USING THE SAME” (VANDERBILT UNIVERSITY, priority 2014, published 2017).
